Test results reported in US20200283532A1, “TUMOUR-TARGETING PEPTIDE VARIANTS” (Cancer Research Technology Limited, priority 2017, published 2020).
Read-outs that look alike come from different tables or passages of the source.

Assays:
[1] = molecular target: T1, αvβ6 integrin (A375Pβ6 cells) (Homo sapiens, UniProt P06756+P18564); assay: Level of binding of biotinylated peptides to A375Pβ6 cells by flow cytometry; conditions: mean of up to four experiments; for A) Affinity: mean activity relative to biotinylated A20FMDV2 (100 nM): binding to A375Pβ6 at 100 nM, flow cytometry, commercial biotinylated A20FMDV2 = 1.00
T1 construct: expressed in transfected cells; host or cells: A375Pβ6 (transduced A375P melanoma cells; control line A375Ppuro)

A375Pβ6 cells = format: cell-based
Experimental: Cells were trypsinised and resuspended into DMEM (serum-free media) to prepare a cell suspension of 4×10^6 cells/ml. From this point on everything was kept on ice. 50 μl of cell suspension were aliquoted into each flow tube. Peptides were diluted in ice-cold serum-free media to 200 nM giving the final concentration of 100 nM when 50 μl was added to the cell samples. The peptides were left on ice for 15 minutes then washed twice with flow media and centrifuged for 3 minutes at 1200 rpm in between each wash step. Mouse anti-biotin (50 μl at 1:200) was added to each sample for 15 minutes, then wash steps were repeated. Apart from the 0 time point, each of the time point samples were put in the incubator at 37° C. and at 15, 30 and 45 minutes the cells were fixed in 4% formaldehyde in PBS for 10 minutes, washed once in PBS and 0.1% Triton X-100 detergent added for 5 minutes, before washing in PBS again. Goat anti-mouse IgG conjugated to AlexaFLUOR 488 (1:250) was added (50 μl) to each sample and left for 15 minutes on ice in the dark. Samples were washed as above and resuspended to 30 μl. Samples were examined on an Imagestream X Mark II (Amnis, Merck) Imagestream images were assessed for internalisation compared with the 0 minute samples using on board software.
Internalisation Assay Method—Flow Cytometry
Cells were prepared as above except that no detergent was added prior to detecting the biotin with antibodies. Samples were analysed on a FACScalibur (Bekton-Dickinson) cytometer.
To assess ability to be internalized by cells at 37° C. (and thus potential vectors for therapies) we used Imagestream® cytometry and flow cytometry. Imagestream® takes a fluorescence image of each cell (FIG. 2C) enabling image analysis of the fluorescence on the surface versus the intracellular compartment. Histograms in FIG. 2C plot internalization relative to the 0 minute time point. For flow cytometry we monitored the loss of surface expression as the peptides were internalized.

[2] = system: A375Pβ6 (αvβ6) and A375Puro (control) xenografts; assay: Biodistribution of 111In-DTPA labelled peptides in tumour-bearing mice; format: in vivo, female CD1 Nu/Nu mice; conditions: 111In-DTPA peptide iv, mean ± SEM
Experimental: 2×10^6 cells in 100 μl were injected subcutaneously into the shoulders of female CD1 Nu/Nu mice. Tumours were grown subcutaneously on the left (A375Puro) and on the right (A375136) shoulder over two weeks. Once tumours had grown to approximately 5 mm diameter peptides were radiolabelled with Indium-111, and analysed by Radio-HPLC to determine labelling efficiency. The labelled peptides were diluted in sterile PBS/BSA and were dosed to give 0.3MBq per animal. Mice were then intravenously (tail-vein) injected with the radiolabelled peptide and are culled after 1 hour. Blood, organs and tumours were removed, weighed and residual activity was measured on a gamma counter (LKB Compugamma) the next day. Data were expressed as % Injected Dose/g tissue (% ID/g).
Immunocompromised mice (n=3-5) bearing A375Ppuro and A37546 tumours on opposite shoulders were given intravenous (iv) injections of […] of radiolabelled peptides 22-26 then killed 1 h later. Major organs and blood were collected immediately, weighed, and radioactivity determined. The data in Table 3 show the behaviour of the five DTPA-conjugated peptides tested; data are expressed as mean % injected dose/g tissue.

T1 sequence (P06756 31-889 limits assumed, stated change not applied): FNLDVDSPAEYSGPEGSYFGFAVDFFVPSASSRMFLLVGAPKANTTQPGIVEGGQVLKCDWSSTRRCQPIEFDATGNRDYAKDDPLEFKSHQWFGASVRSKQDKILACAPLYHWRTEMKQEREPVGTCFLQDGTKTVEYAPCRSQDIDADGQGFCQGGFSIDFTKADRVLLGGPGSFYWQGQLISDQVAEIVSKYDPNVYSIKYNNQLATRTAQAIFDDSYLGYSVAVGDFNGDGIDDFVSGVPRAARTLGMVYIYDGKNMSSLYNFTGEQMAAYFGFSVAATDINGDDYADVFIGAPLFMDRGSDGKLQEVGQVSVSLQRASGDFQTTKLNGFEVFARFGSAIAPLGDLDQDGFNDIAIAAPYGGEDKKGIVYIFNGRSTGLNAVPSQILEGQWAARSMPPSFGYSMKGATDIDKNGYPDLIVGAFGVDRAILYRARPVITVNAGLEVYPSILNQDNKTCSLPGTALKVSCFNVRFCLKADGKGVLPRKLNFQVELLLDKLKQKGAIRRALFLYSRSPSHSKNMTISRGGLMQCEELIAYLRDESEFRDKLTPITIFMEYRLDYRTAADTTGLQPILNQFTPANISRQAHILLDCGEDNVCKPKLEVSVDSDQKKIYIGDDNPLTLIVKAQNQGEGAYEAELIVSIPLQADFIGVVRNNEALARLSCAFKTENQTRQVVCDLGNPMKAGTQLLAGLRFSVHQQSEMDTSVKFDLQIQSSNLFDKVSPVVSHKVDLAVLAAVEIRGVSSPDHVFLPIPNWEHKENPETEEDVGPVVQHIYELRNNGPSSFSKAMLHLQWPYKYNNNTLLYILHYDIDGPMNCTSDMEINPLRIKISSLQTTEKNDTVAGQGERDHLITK
T1 sequence (P06756 891-1048 limits assumed, stated change not applied): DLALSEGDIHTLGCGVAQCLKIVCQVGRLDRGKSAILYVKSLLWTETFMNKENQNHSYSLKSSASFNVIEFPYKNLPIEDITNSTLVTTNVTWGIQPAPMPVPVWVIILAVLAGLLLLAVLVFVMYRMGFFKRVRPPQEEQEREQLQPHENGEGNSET
T1 sequence (P18564 22-788, stated change not applied): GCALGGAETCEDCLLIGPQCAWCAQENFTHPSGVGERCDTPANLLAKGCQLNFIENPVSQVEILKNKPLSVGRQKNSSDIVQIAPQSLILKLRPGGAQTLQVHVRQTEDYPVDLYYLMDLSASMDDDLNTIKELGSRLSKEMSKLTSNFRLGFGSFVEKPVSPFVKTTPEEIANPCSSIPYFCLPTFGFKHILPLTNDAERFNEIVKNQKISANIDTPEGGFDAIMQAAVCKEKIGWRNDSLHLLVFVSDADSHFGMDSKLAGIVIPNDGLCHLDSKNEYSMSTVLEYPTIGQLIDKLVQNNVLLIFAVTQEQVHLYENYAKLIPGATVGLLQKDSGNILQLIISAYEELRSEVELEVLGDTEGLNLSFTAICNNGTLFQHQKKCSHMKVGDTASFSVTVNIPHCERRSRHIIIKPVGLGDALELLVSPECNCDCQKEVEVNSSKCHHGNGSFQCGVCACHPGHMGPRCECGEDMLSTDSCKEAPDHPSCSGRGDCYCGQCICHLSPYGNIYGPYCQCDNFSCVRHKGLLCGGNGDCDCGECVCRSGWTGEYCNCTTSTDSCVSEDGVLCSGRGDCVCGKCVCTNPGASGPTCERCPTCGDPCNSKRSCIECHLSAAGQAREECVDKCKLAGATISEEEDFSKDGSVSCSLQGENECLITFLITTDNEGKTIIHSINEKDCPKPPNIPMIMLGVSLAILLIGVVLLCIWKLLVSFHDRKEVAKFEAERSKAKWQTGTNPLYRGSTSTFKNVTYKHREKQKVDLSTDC

Substance: N-NK(Biotin)VPNLRGDLQVLAQ[diaminobutyric acid]VART-OH [Peptide 4]
- A) Affinity: mean activity relative to biotinylated A20FMDV2 (100 nM) [1]: 1.00 ± 0.07
- B) Internalisation: mean % internalisation at 45 min relative to biotinylated A20FMDV2 (100 nM) (A375Pβ6 cells): 0.86 ± 0.29
- Relative Activity (A × B) (A375Pβ6 cells): 0.86

Substance: H2N-NK(Biotin)VPNLRGDLQVLAQKVART-OH [Peptide 1]
- A) Affinity: mean activity relative to biotinylated A20FMDV2 (100 nM) [1]: 1.11 ± 0.15
- B) Internalisation: mean % internalisation at 45 min relative to biotinylated A20FMDV2 (100 nM) (A375Pβ6 cells): 0.84 ± 0.14
- Relative Activity (A × B) (A375Pβ6 cells): 0.93

Substance: H2N-NK(Biotin)VPNLRGDLQV[2-amino-3-ethylpentanoic acid]AQKVART-OH [Peptide 13]
- A) Affinity: mean activity relative to biotinylated A20FMDV2 (100 nM) [1]: 0.70 ± 0.33
- B) Internalisation: mean % internalisation at 45 min relative to biotinylated A20FMDV2 (100 nM) (A375Pβ6 cells): 0.52 ± 0.23
- Relative Activity (A × B) (A375Pβ6 cells): 0.37

Substance: H2N-NK(Biotin)VPNLRGDLQV[allylglycine]AQKVART-OH [Peptide 10]
- A) Affinity: mean activity relative to biotinylated A20FMDV2 (100 nM) [1]: 0.58 ± 0.25
- B) Internalisation: mean % internalisation at 45 min relative to biotinylated A20FMDV2 (100 nM) (A375Pβ6 cells): 0.82 ± 0.25
- Relative Activity (A × B) (A375Pβ6 cells): 0.48

Substance: H2N-NK(Biotin)VPNLRGDLQV[aminoisobutyric acid]AQKVART-OH [Peptide 7]
- A) Affinity: mean activity relative to biotinylated A20FMDV2 (100 nM) [1]: 1.07 ± 0.37
- B) Internalisation: mean % internalisation at 45 min relative to biotinylated A20FMDV2 (100 nM) (A375Pβ6 cells): 1.11 ± 0.3
- Relative Activity (A × B) (A375Pβ6 cells): 1.19

Substance: AcHN-NK(Biotin)VPNLRGDLQVLAQKVART-OH [Peptide 16]
- B) Internalisation: mean % internalisation at 45 min relative to biotinylated A20FMDV2 (100 nM) (A375Pβ6 cells): 1.05 ± 0.24
- Relative Activity (A × B) (A375Pβ6 cells): 1.55
- Relative Activity value higher than the control peptide (A375Pβ6 cells): 55%

Substance: H2N-NK (Biotin) VPNLRGDLQV[norvaline]AQKVART-OH [Peptide 8]
- A) Affinity: mean activity relative to biotinylated A20FMDV2 (100 nM) [1]: 0.77 ± 0.52
- B) Internalisation: mean % internalisation at 45 min relative to biotinylated A20FMDV2 (100 nM) (A375Pβ6 cells): 1.09 ± 0.17
- Relative Activity (A × B) (A375Pβ6 cells): 0.84

Substance: H2N-nK(Biotin)VPNLRGDLQVLAQKVARt-OH [Peptide 21]
- B) Internalisation: mean % internalisation at 45 min relative to biotinylated A20FMDV2 (100 nM) (A375Pβ6 cells): 0.87 ± 0.27
- Relative Activity value higher than the control peptide (A375Pβ6 cells): 37%

Substance: DTPA-GNK(Biotin)VPNLRGDLQVLAQKVART-OH [Peptide 23]
- A) Affinity: mean activity relative to biotinylated A20FMDV2 (100 nM) [1]: 1.28 ± 0.23
- Bio-distribution, Blood ([2]; 1 h): 0.5 ± 0.16 % ID/g
- Bio-distribution, Heart ([2]; 1 h): 0.6 ± 0.16 % ID/g
- Bio-distribution, Intestines ([2]; 1 h): 3.8 ± 0.98 % ID/g
- Bio-distribution, Liver ([2]; 1 h): 0.4 ± 0.06 % ID/g
- Bio-distribution, Lung ([2]; 1 h): 4.4 ± 0.72 % ID/g
- Bio-distribution, Muscle ([2]; 1 h): 0.8 ± 0.07 % ID/g
- Bio-distribution, Pancreas ([2]; 1 h): 0.5 ± 0.13 % ID/g
- Bio-distribution, Spleen ([2]; 1 h): 0.2 ± 0.07 % ID/g
- Bio-distribution, Stomach ([2]; 1 h): 6.4 ± 2.33 % ID/g
- Bio-distribution, Tail ([2]; 1 h): 4.3 ± 2.85 % ID/g
- Bio-distribution, Tumour (Control) ([2]; A375Puro xenograft, mice culled after 1 h): 0.5 ± 0.15 % ID/g
- Bio-distribution, Tumour (αvβ6) ([2]; A375Pβ6 xenograft, mice culled after 1 h): 3.7 ± 0.29 % ID/g
- Relative Activity (A × B) (A375Pβ6 cells; binding affinity value multiplied by amount internalized, commercial biotinylated A20FMDV2 = 1.00): 1.24
- B) Internalisation: mean % internalisation at 45 min relative to biotinylated A20FMDV2 (100 nM) (A375Pβ6 cells; flow cytometry, 100 nM, 45 min at 37° C., commercial biotinylated A20FMDV2 = 1.00): 0.97 ± 0.11

Substance: H2N-NK(Biotin)VPNLRGDLQVLAQKVART-NH2 [Peptide 17]
- B) Internalisation: mean % internalisation at 45 min relative to biotinylated A20FMDV2 (100 nM) (A375Pβ6 cells): 1.07 ± 0.40
- Relative Activity (A × B) (A375Pβ6 cells): 1.31
- Relative Activity value higher than the control peptide (A375Pβ6 cells): 31%

Substance: H2N-NK(Biotin)VPNLRGDLQV[norleucine]AQKVART-OH [Peptide 9]
- A) Affinity: mean activity relative to biotinylated A20FMDV2 (100 nM) [1]: 1.16 ± 0.29
- B) Internalisation: mean % internalisation at 45 min relative to biotinylated A20FMDV2 (100 nM) (A375Pβ6 cells): 1.15 ± 0.04
- Relative Activity (A × B) (A375Pβ6 cells): 1.33

Substance: H2N-NK(Biotin)VPNLRGDLQV[cyclohexylalanine]AQKVART-OH [Peptide 14]
- A) Affinity: mean activity relative to biotinylated A20FMDV2 (100 nM) [1]: 0.62 ± 0.06
- B) Internalisation: mean % internalisation at 45 min relative to biotinylated A20FMDV2 (100 nM) (A375Pβ6 cells): 1.01 ± 0.32
- Relative Activity (A × B) (A375Pβ6 cells): 0.62

Substance: H2N-NK(Biotin)VPNLRGDLQVLAQ-N-MeKVART-OH [Peptide 6]
- A) Affinity: mean activity relative to biotinylated A20FMDV2 (100 nM) [1]: 0.37 ± 0.12
- B) Internalisation: mean % internalisation at 45 min relative to biotinylated A20FMDV2 (100 nM) (A375Pβ6 cells): 0.89 ± 0.32
- Relative Activity (A × B) (A375Pβ6 cells): 0.32

Substance: H2N-NK(Biotin)VPNLRGDLQV[homoleucine]AQKVART-OH [Peptide 12]
- A) Affinity: mean activity relative to biotinylated A20FMDV2 (100 nM) [1]: 0.45 ± 0.22
- B) Internalisation: mean % internalisation at 45 min relative to biotinylated A20FMDV2 (100 nM) (A375Pβ6 cells): 0.66 ± 0.14
- Relative Activity (A × B) (A375Pβ6 cells): 0.27

Substance: AcHN-NK(Biotin)VPNLRGDLQVLAQKVART-NH2 [Peptide 18]
- A) Affinity: mean activity relative to biotinylated A20FMDV2 (100 nM) [1]: 1.25 ± 0.26
- B) Internalisation: mean % internalisation at 45 min relative to biotinylated A20FMDV2 (100 nM) (A375Pβ6 cells): 0.87 ± 0.12
- Relative Activity (A × B) (A375Pβ6 cells): 1.09
- Relative Activity value higher than the control peptide (A375Pβ6 cells): 9%

Substance: H2N-NK(Biotin)VPNLRGDLQVLAQkVART-OH [Peptide 2]
- A) Affinity: mean activity relative to biotinylated A20FMDV2 (100 nM) [1]: 1.11 ± 0.15
- B) Internalisation: mean % internalisation at 45 min relative to biotinylated A20FMDV2 (100 nM) (A375Pβ6 cells): 0.78 ± 0.15
- Relative Activity (A × B) (A375Pβ6 cells): 0.87

Substance: H2N-nK(Biotin)VPNLRGDLQVLAQKVART-OH [Peptide 19]
- Average binding activity higher than the parent (commercially obtained biotinylated-A20FMDV2) ([1]; A375Pβ6, 100 nM): 43%
- B) Internalisation: mean % internalisation at 45 min relative to biotinylated A20FMDV2 (100 nM) (A375Pβ6 cells): 0.89 ± 0.12
- Relative Activity value higher than the control peptide (A375Pβ6 cells): 27%

Substance: H2N-NK(Biotin)VPNLRGDLQVLAQ[diaminopropionic acid]VART-OH [Peptide 5]
- A) Affinity: mean activity relative to biotinylated A20FMDV2 (100 nM) [1]: 0.79 ± 0.14
- B) Internalisation: mean % internalisation at 45 min relative to biotinylated A20FMDV2 (100 nM) (A375Pβ6 cells): 0.96 ± 0.31
- Relative Activity (A × B) (A375Pβ6 cells): 0.76

Substance: H2N-NK(Biotin)VPNLRGDLQVLAQ[ornithine]VART-OH [Peptide 3]
- A) Affinity: mean activity relative to biotinylated A20FMDV2 (100 nM) [1]: 1.12 ± 0.16
- B) Internalisation: mean % internalisation at 45 min relative to biotinylated A20FMDV2 (100 nM) (A375Pβ6 cells): 0.86 ± 0.29
- Relative Activity (A × B) (A375Pβ6 cells): 0.96

Substance: H2N-NK (Biotin) VPNLRGDLQV[tert-butyl-alanine]AQKVART-OH [Peptide 11]
- A) Affinity: mean activity relative to biotinylated A20FMDV2 (100 nM) [1]: 0.60 ± 0.23
- B) Internalisation: mean % internalisation at 45 min relative to biotinylated A20FMDV2 (100 nM) (A375Pβ6 cells): 1.03 ± 0.14
- Relative Activity (A × B) (A375Pβ6 cells): 0.62

Substance: H2N-NK(Biotin)VPNLRGDLQVLAQKVARt-OH [Peptide 20]
- A) Affinity: mean activity relative to biotinylated A20FMDV2 (100 nM) [1]: 0.53 ± 0.44
- B) Internalisation: mean % internalisation at 45 min relative to biotinylated A20FMDV2 (100 nM) (A375Pβ6 cells): 0.99 ± 0.25
- Relative Activity (A × B) (A375Pβ6 cells): 0.53

Substance: H2N-NK(Biotin)VPNLRGDLQV[adamantylglycine]AQKVART-OH [Peptide 15]
- A) Affinity: mean activity relative to biotinylated A20FMDV2 (100 nM) [1]: 0.51 ± 0.28
- B) Internalisation: mean % internalisation at 45 min relative to biotinylated A20FMDV2 (100 nM) (A375Pβ6 cells): 1.07 ± 0.18
- Relative Activity (A × B) (A375Pβ6 cells): 0.55
